From ChEMBL document CHEMBL3352163, “Anthracene-9, 10-dione derivatives induced apoptosis in human cervical cancer cell line (CaSki) by interfering with HPV E6 expression” (Eur J Med Chem, 2014)
The source made the active and inactive calls. No cut-off for these calls is given here.

Assays:
[1] = Cell cycle arrest in human CaSki cells assessed as accumulation at G0 phase at 0.3 uM after 24 hrs by propidium iodide staining-based FACS analysis (reference value: 1.5%); format: functional; settings: Ca-Ski
Ca-Ski [2] = assay: Induction of apoptosis in human CaSki cells carrying HPV assessed as increase in procaspase-3 protein expression after 24 hrs by Western blotting analysis; format: functional, cell-based
[3] = Cell cycle arrest in human CaSki cells assessed as accumulation at G0 phase at 1.5 uM after 24 hrs by propidium iodide staining-based FACS analysis (reference value: 1.5%); format: functional; settings: Ca-Ski
[4] = Cell cycle arrest in human CaSki cells assessed as accumulation at G2/M phase at 3 uM after 24 hrs by propidium iodide staining-based FACS analysis (reference value: 18.0%); format: functional; settings: Ca-Ski
[5] = Cytotoxicity against human CaSki cells at 10 uM after 72 hrs by MTT assay; format: functional, Ca-Ski
SW-620 = assay: Cytotoxicity against human SW620 cells at 10 uM after 72 hrs by MTT assay; format: functional
[6] = Cell cycle arrest in human CaSki cells assessed as accumulation at S phase at 0.3 uM after 24 hrs by propidium iodide staining-based FACS analysis (reference value: 14.1%); format: functional; settings: Ca-Ski
[7] = Cell cycle arrest in human CaSki cells assessed as accumulation at G2/M phase at 1.5 uM after 24 hrs by propidium iodide staining-based FACS analysis (reference value: 18.0%); format: functional; settings: Ca-Ski
Ca-Ski [8] = assay: Inhibition of colony formation in human CaSki cells at 5 uM after 24 hrs by crystal violet staining-based fluorescence microscopy; format: functional, cell-based
Ca-Ski [9] = assay: Induction of apoptosis in human CaSki cells carrying HPV assessed as increase in p53 protein expression after 24 hrs by Western blotting analysis; format: functional, cell-based
[10] = Cell cycle arrest in human CaSki cells assessed as accumulation at G1 phase at 0.3 uM after 24 hrs by propidium iodide staining-based FACS analysis (reference value: 61.3%); format: functional; settings: Ca-Ski
[11] = Cell cycle arrest in human CaSki cells assessed as accumulation at G2/M phase at 0.3 uM after 24 hrs by propidium iodide staining-based FACS analysis (reference value: 18.0%); format: functional; settings: Ca-Ski
Ca-Ski [12] = assay: Induction of apoptosis in human CaSki cells by DAPI staining-based fluorescence microscopy; format: functional, cell-based
[13] = Cell cycle arrest in human CaSki cells assessed as accumulation at G0 phase at 3 uM after 24 hrs by propidium iodide staining-based FACS analysis (reference value: 1.5%); format: functional; settings: Ca-Ski
HepG2 [14] = assay: Cytotoxicity against human HepG2 cells at 10 uM after 72 hrs by MTT assay; format: functional
HepG2 [15] = assay: Cytotoxicity against human HepG2 cells after 72 hrs by MTT assay; format: functional, cell-based; settings: HepG2, 72 h
[16] = Cell cycle arrest in human CaSki cells assessed as accumulation at G1 phase at 1.5 uM after 24 hrs by propidium iodide staining-based FACS analysis (reference value: 61.3%); format: functional; settings: Ca-Ski
[17] = Cell cycle arrest in human CaSki cells assessed as accumulation at G1 phase at 3 uM after 24 hrs by propidium iodide staining-based FACS analysis (reference value: 61.3%); format: functional; settings: Ca-Ski
[18] = Cytotoxicity against human WI38 cells after 72 hrs by MTT assay; format: cell-based; settings: WI-38, 72 h
[19] = Cytotoxicity against human KATO III cells after 72 hrs by MTT assay; format: functional, cell-based, KATO III cell
[20] = Cytotoxicity against human KATO III cells at 10 uM after 72 hrs by MTT assay; format: functional, KATO III cell
Ca-Ski [21] = assay: Induction of apoptosis in human CaSki cells carrying HPV assessed as reduction of E6 mRNA expression at 0.3 uM after 24 hrs by RT-PCR analysis; format: functional, cell-based
[22] = Cytotoxicity against human ChaGo cells after 72 hrs by MTT assay; format: functional, cell-based
[23] = Cell cycle arrest in human CaSki cells assessed as accumulation at S phase at 1.5 uM after 24 hrs by propidium iodide staining-based FACS analysis (reference value: 14.1%); format: functional; settings: Ca-Ski
Ca-Ski [24] = assay: Induction of apoptosis in human CaSki cells carrying HPV assessed as inhibition of Bcl-2 protein expression at 0.3 uM after 24 hrs by Western blotting analysis; format: functional, cell-based
[25] = Cell cycle arrest in human CaSki cells assessed as accumulation at G2/M phase after 24 hrs by propidium iodide staining-based FACS analysis; format: functional; settings: Ca-Ski
Ca-Ski [26] = assay: Induction of apoptosis in human CaSki cells carrying HPV assessed as downregulation of Akt phosphorylation after 24 hrs by Western blotting analysis; format: functional, cell-based
[27] = Cell cycle arrest in human CaSki cells assessed as accumulation at S phase at 3 uM after 24 hrs by propidium iodide staining-based FACS analysis (reference value: 14.1%); format: functional; settings: Ca-Ski
[28] = Cytotoxicity against human ChaGo cells at 10 uM after 72 hrs by MTT assay; format: functional
Ca-Ski [29] = assay: Cytotoxicity against human CaSki cells at 10 uM in presence of glutathione relative to control; format: functional, cell-based
[30] = Cytotoxicity against human CaSki cells after 72 hrs by MTT assay; format: functional, cell-based; settings: Ca-Ski

## Cc1ccc(S(=O)(=O)Oc2ccc(NCc3ccccc3)c3c2C(=O)c2ccccc2C3=O)cc1
[1]
  Activity: 1.9%
Ca-Ski [2]
  Activity: Active
[3]
  Activity: 11%
[4]
  Activity: 46.2%
[5]
  Activity: 84.5%
SW-620
  Activity: 49.1%
[6]
  Activity: 12.6%
[7]
  Activity: 33.8%
Ca-Ski [8]
  inhibition: Active
Ca-Ski [9]
  Activity: Active
[10]
  Activity: 62%
[11]
  Activity: 19.5%
Ca-Ski [12]
  Activity: Dose-dependent effect
[13]
  Activity: 10.9%
HepG2 [14]
  Activity: 40.5%
HepG2 [15]
  IC50: > 5.7 µM
[16]
  Activity: 31.7%
[17]
  Activity: 12.4%
[18]
  IC50: > 10 µM
[19]
  IC50: > 5.7 µM
[20]
  Activity: 41.5%
Ca-Ski [21]
  Activity: Active
[22]
  IC50: > 5.7 µM
[23]
  Activity: 13.7%
Ca-Ski [24]
  inhibition: Active
[25]
  Activity: Dose-dependent effect
Ca-Ski [26]
  Activity: Dose-dependent effect
[27]
  Activity: 14.2%
[28]
  Activity: 39.8%
Ca-Ski [29]
  Activity: Active

## Cc1ccc(S(=O)(=O)Oc2ccc(NCCN3CCOCC3)c3c2C(=O)c2ccccc2C3=O)cc1
[5]
  Activity: 42.8%
SW-620
  Activity: 19.4%
HepG2 [14]
  Activity: 11.1%
[20]
  Activity: 29.3%
[28]
  Activity: 4.9%

## O=C1c2ccccc2C(=O)c2c(O)ccc(O)c21 [QUINIZARIN]
[5]
  Activity: 48.6%
SW-620
  Activity: 21.1%
[30]
  IC50: > 10 µM
HepG2 [14]
  Activity: 5.6%
[20]
  Activity: 38.4%
[28]
  Activity: 12.3%

## CCN(CC)c1ccc(OS(=O)(=O)c2ccc(C)cc2)c2c1C(=O)c1ccccc1C2=O
[5]
  Activity: 50%
SW-620
  Activity: 32.6%
[30]
  IC50: 0.3 µM
HepG2 [14]
  Activity: 35.6%
[20]
  Activity: 39.9%
[28]
  Activity: 43.9%

## Cc1ccc(S(=O)(=O)Oc2ccc(NCCc3ccccc3)c3c2C(=O)c2ccccc2C3=O)cc1
[5]
  Activity: 27.4%
SW-620
  Activity: 49.5%
HepG2 [14]
  Activity: 8.3%
[20]
  Activity: 42.5%
[28]
  Activity: 13.3%

## Cc1ccc(S(=O)(=O)Oc2ccc(N3CCOCC3)c3c2C(=O)c2ccccc2C3=O)cc1
[5]
  Activity: 43.8%
SW-620
  Activity: 22.3%
HepG2 [14]
  Activity: 6.1%
[20]
  Activity: 35.3%
[28]
  Activity: 11.3%

## Cc1ccc(S(=O)(=O)Oc2ccc(OS(=O)(=O)c3ccc(C)cc3)c3c2C(=O)c2ccccc2C3=O)cc1
[5]
  Activity: 36.4%
SW-620
  Activity: 22.2%
HepG2 [14]
  Activity: 11.9%
[20]
  Activity: 31.1%
[28]
  Activity: 5.8%
